Reference: the NIST ThermoML archive (doi:10.1016/j.jct.2005.09.003)

Test: xn = mol fraction of the nth substance listed
Conditions: Liquid

CCCCCCCl [1-chlorohexane] + CCCCCCCC
mass density [kg/m3]
Conditions	x2 = 0	x2 = 0.1016	x2 = 0.1996	x2 = 0.3153	x2 = 0.3948	x2 = 0.4862	x2 = 0.5938	x2 = 0.6966	x2 = 0.794	x2 = 0.9001
308.15 K, 39620 kPa	–	–	–	–	–	–	–	–	–	735.19
318.15 K, 100 kPa	854.58	834.04	814.96	793.28	778.92	762.93	744.78	728.11	712.89	696.93
318.15 K, 2130 kPa	856.27	835.95	816.81	795.21	780.76	764.83	746.83	730.05	714.94	698.9
318.15 K, 4150 kPa	858.19	837.89	818.74	797.18	782.71	766.77	748.78	732.01	716.9	700.85
318.15 K, 6180 kPa	860.06	839.78	820.64	799.07	784.6	768.67	750.71	733.92	718.79	702.75
318.15 K, 8210 kPa	861.91	841.62	822.49	800.94	786.48	770.55	752.56	735.77	720.67	704.6
318.15 K, 10230 kPa	863.73	843.46	824.34	802.79	788.32	772.38	754.41	737.61	722.49	706.41
318.15 K, 11250 kPa	864.62	844.35	825.23	803.67	789.21	773.28	755.31	738.5	723.39	707.3
318.15 K, 12260 kPa	865.5	845.27	826.11	804.57	790.11	774.2	756.2	739.4	724.3	708.21
318.15 K, 14290 kPa	867.28	847.01	827.89	806.35	791.88	775.94	757.98	741.15	726.04	709.95
318.15 K, 16310 kPa	869	848.75	829.61	808.09	793.61	777.66	759.69	742.89	727.75	711.66
318.15 K, 18340 kPa	870.66	850.43	831.3	809.76	795.29	779.35	761.37	744.57	729.42	713.3
318.15 K, 20370 kPa	872.33	852.13	832.97	811.43	796.96	781.01	763.03	746.2	731.08	714.96
318.15 K, 22390 kPa	873.95	853.71	834.6	813.06	798.59	782.65	764.67	747.82	732.69	716.55
318.15 K, 24420 kPa	875.54	855.32	836.2	814.65	800.17	784.23	766.24	749.39	734.25	718.09
318.15 K, 26450 kPa	877.12	856.9	837.77	816.23	801.75	785.8	767.8	750.95	735.8	719.69
318.15 K, 28470 kPa	878.67	858.45	839.34	817.78	803.29	787.34	769.34	752.48	737.32	721.17
318.15 K, 29490 kPa	879.43	859.22	840.08	818.54	804.05	788.09	770.08	753.23	738.07	721.87
318.15 K, 30500 kPa	880.19	859.99	840.84	819.31	804.81	788.85	770.85	753.99	738.83	722.64
318.15 K, 32530 kPa	881.7	861.5	842.34	820.8	806.31	790.33	772.31	755.45	740.27	724.08
318.15 K, 34550 kPa	883.17	862.97	843.8	822.26	807.75	791.8	773.76	756.87	741.69	725.5
318.15 K, 36580 kPa	884.63	864.41	845.26	823.71	809.2	793.22	775.19	758.28	743.11	726.91
318.15 K, 38600 kPa	886.04	865.86	846.68	825.13	810.6	794.61	776.59	759.68	744.49	728.26
318.15 K, 39620 kPa	886.76	866.55	847.39	825.83	811.31	795.32	777.27	760.4	745.19	728.95
328.15 K, 100 kPa	845.18	824.75	–	784.31	770.08	754.25	736.27	719.76	704.68	688.86
328.15 K, 2130 kPa	847.12	826.75	807.96	786.36	772.17	756.35	738.33	721.87	706.7	690.84
328.15 K, 4150 kPa	849.17	828.82	810.05	788.45	774.26	758.45	740.42	723.96	708.79	692.91
328.15 K, 6180 kPa	851.16	830.83	812.05	790.48	776.28	760.49	742.45	725.98	710.81	694.93
328.15 K, 8210 kPa	853.13	832.8	814.05	792.45	778.27	762.48	744.42	728	712.79	696.92
328.15 K, 10230 kPa	855.02	834.72	815.97	794.38	780.21	764.41	746.38	729.93	714.74	698.84
328.15 K, 11250 kPa	855.98	835.67	816.92	795.34	781.17	765.37	747.33	730.88	715.68	699.79
328.15 K, 12260 kPa	856.91	836.61	817.87	796.3	782.13	766.33	748.28	731.81	716.64	700.74
328.15 K, 14290 kPa	858.76	838.48	819.73	798.16	784	768.18	750.17	733.7	718.5	702.6
328.15 K, 16310 kPa	860.59	840.3	821.56	799.99	785.83	770.03	752	735.52	720.32	704.39
328.15 K, 18340 kPa	862.35	842.06	823.33	801.75	787.59	771.78	753.76	737.29	722.07	706.15
328.15 K, 20370 kPa	864.12	843.84	825.11	803.54	789.37	773.56	755.51	739.04	723.83	707.88
328.15 K, 22390 kPa	865.82	845.55	826.81	805.24	791.08	775.27	757.24	740.74	725.52	709.57
328.15 K, 24420 kPa	867.51	847.24	828.51	806.94	792.78	776.96	758.91	742.4	727.18	711.21
328.15 K, 26450 kPa	869.18	848.91	830.19	808.59	794.43	778.61	760.54	744.05	728.79	712.83
328.15 K, 28470 kPa	870.8	850.52	831.8	810.22	796.05	780.22	762.15	745.64	730.38	714.38
328.15 K, 29490 kPa	871.6	851.32	832.59	811.01	796.83	781.01	762.93	746.43	731.16	715.18
328.15 K, 30500 kPa	872.4	852.13	833.4	811.81	797.63	781.8	763.73	747.21	731.95	715.96
328.15 K, 32530 kPa	873.95	853.71	834.95	813.36	799.19	783.35	765.25	748.74	733.44	717.46
328.15 K, 34550 kPa	875.49	855.25	836.5	814.87	800.71	784.87	766.77	750.23	734.96	718.95
328.15 K, 36580 kPa	877.05	856.79	838.03	816.42	802.23	786.39	768.27	751.74	736.44	720.42
328.15 K, 38600 kPa	878.53	858.28	839.51	817.9	803.7	787.85	769.73	753.2	737.86	721.85
328.15 K, 39620 kPa	879.31	859.03	840.27	818.64	804.43	788.56	770.44	753.9	738.58	722.55
